Reference: PMC6017062, “Probing the Inhibitor versus Chaperone Properties of sp^2-Iminosugars towards Human β-Glucocerebrosidase: A Picomolar Chaperone for Gaucher Disease” (Molecules : A Journal of Synthetic Chemistry and Natural …, 2018)
Residue numbers refer to the chain shown, from its start.

How the values were obtained:
[1] = target: T1, GCase (Homo sapiens, UniProt P04062); assay: GCase activity in cultured healthy human fibroblasts; type: cell-based
T1 construct: endogenous in cells; host or cells: normal human skin fibroblasts
T1 sequence (P04062 40-536): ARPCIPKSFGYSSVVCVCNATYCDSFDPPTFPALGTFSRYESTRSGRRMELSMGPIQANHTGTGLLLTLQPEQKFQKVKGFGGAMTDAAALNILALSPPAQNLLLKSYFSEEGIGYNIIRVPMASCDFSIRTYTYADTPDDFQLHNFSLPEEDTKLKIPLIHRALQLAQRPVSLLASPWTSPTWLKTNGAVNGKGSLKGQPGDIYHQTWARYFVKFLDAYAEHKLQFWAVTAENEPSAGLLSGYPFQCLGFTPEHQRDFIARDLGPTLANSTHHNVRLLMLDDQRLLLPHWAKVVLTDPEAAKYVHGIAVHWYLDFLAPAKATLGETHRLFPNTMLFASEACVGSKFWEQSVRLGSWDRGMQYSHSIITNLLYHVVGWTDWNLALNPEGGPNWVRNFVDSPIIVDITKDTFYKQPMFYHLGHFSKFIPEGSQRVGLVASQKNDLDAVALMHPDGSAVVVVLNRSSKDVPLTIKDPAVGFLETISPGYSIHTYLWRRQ
Protocol: For that purpose, cells were cultured for 5 days in the absence and in the presence of various concentrations of the compounds, then lysed, and the enzyme activity was determined using 4-methylumbelliferyl β-D-glucopyranoside as substrate. Higher GCase activities in the lysate indicate that larger amounts of the protein are present and that it is functional.
(§1) Normal and Gaucher disease patients’ skin fibroblasts were cultured in Dulbecco modified Eagle’s medium (WAKO, Richmond, VA, USA) supplemented with 10% fetal bovine serum (Nichirei Biosci. Inc., Tokyo, Japan) at 37 °C in 5% CO2. For measurement of chaperone activities, fibroblasts were plated onto 35 mm dishes at 50,000 cells per dish. After 24 h incubation, the medium with the indicated concentrations of compound was applied and cells were cultured for 96 h. Then, the lysates in 0.1% Triton-X100/distilled H2O were collected from the cells and assayed for lysosomal GCase as described above. To measure the cytotoxic effect of the compounds, normal human fibroblasts were plated onto 35 mm dishes at 15,000 cells per dish and incubated overnight. Then, the medium was changed with or without compounds. After 24 h incubation, the supernatant of the cells was collected and measured by the lactate dehydrogenase assay (WAKO, Richmond, VA, USA). All the cell lines used were tested for mycoplasma contamination before conducting the chaperone and toxicity assays.

[2] = target: T2, N188S/G183W mutant GCase (Homo sapiens, UniProt P04062, N227S); assay: Chaperone test in N188S/G183W type 3 Gaucher patient fibroblasts; type: cell-based
T2 construct: endogenous in cells; host or cells: skin fibroblasts of N188S/G183W type 3 Gaucher patients
T2 sequence (P04062 40-536 N227S): T1 sequence (P04062 40-536) with N188S
Text: To test the chaperoning capabilities, Gaucher fibroblasts from patients hosting the adult neuronopathic (type 3) Gaucher disease-associated N188S/G183W mutant GCase were employed. It is worth mentioning that the neuronopathic clinical subtypes of Gaucher disease remain currently at orphan status, given the inability of the recombinant enzyme used in enzyme replacement therapy or the glucosylceramide synthase inhibitor Zavesca® used in substrate reduction therapy to cross the blood–brain barrier. This mutation is located in the catalytic domain (domain III) of GCase and has been previously found to be responsive to sp^2-iminosugar-type chaperones. […] Yet, the activity trend as a function of the chaperone concentration was starkly different between them. Thus, the nonreducing representatives 3 and 4 reached the maximum chaperoning effect at 200 nM and as low as 2 nM concentration, respectively, as compared with 20 and 2 μM for the reducing homologues 1 and 2.
as §1

[3] = N188S/G183W Gaucher fibroblasts

CCCCCCCCN=C1SCC2C(O)C(O)C(O)CN12 (stereo not drawn) [Compound 4, 1-Deoxy-6-thio-5-N,6-S-(N′-octyliminomethylidene)nojirimycin]
GCase activity in lysates of healthy human fibroblasts at higher concentrations [1]: significantly inhibited
GCase activity in lysates of healthy human fibroblasts at 20 μM ([1]; 20 μM, 5 days culture): virtually full inhibition
N188S/G183W GCase activity enhancement at 20 pM ([2]; 20 pM, patient fibroblasts): over 70%
N188S/G183W GCase activity enhancement at 2 nM ([2]; 2 nM, patient fibroblasts): 300%
concentration of maximum chaperoning effect [2, 3]: 2 nM
concentration over which chaperone/inhibitor balance is unfavorable (net decrease in mutant enzyme activity vs control) [2, 3]: > 0.2 µM
